The source of these data is PubChem BioAssay AID1996.

≈ marks a conversion by molar mass, not a printed value.

The conditions of this data set: buffer; pH 7.4; 200.0 µM.
The term kinetic solubility denotes the concentration staying in solution when a stock, usually in DMSO, is diluted into the medium. The molecule `CCSc1nc2sccc2c(=O)n1-c1ccccc1` returned a kinetic solubility of 27.3 µg/mL (≈ 94.7 µM). In the case of `CCOC(=O)/C(N=Nc1ccc(C(=O)O)cc1[N+](=O)[O-])=C(\C)O` it was greater than 48.5 µg/mL; in that of `Cc1ccc(C(=O)NCC(c2ccco2)N2CCOCC2)cc1` (stereo not drawn), greater than 47.2 µg/mL; in that of `NC(=S)NC1CCS(=O)(=O)C1` (stereo not drawn), greater than 29.1 µg/mL.

For `COc1ccccc1C(O)c1nccn1C` (stereo not drawn), the solubility (kinetic) is greater than 32.7 µg/mL. `CC(=O)Oc1ccc(C(=O)NC(C)CCc2ccccc2)cc1` (stereo not drawn): the kinetic solubility is 42.2 µg/mL (≈ 136 µM). The value for `CC(=O)c1ccc(N2CCN(C(=S)NCc3ccco3)CC2)cc1` was 45.4 µg/mL (≈ 132 µM); that for `O=C1CC(c2ccsc2)Sc2ccccc2N1` (stereo not drawn) was 33.9 µg/mL (≈ 130 µM). In the case of `Cn1nc(C(F)(F)F)c(-c2ccccc2)c1NC(=O)CSCC(=O)O` it was greater than 56 µg/mL; in that of `CC(=O)c1ccc(NC(=S)Nc2cccc(Cl)c2C)cc1`, 40.7 µg/mL (≈ 128 µM); in that of `Cl.NCCSSCCN`, 31.6 µg/mL.

Molecule `COc1ccccc1N1C(=O)CSC1=S` gave a solubility (kinetic) of 3.4 µg/mL (≈ 14.2 µM).

As to `O=C(COC(=O)c1cccc(OC(F)F)c1)Nc1cccc(S(=O)(=O)N2CCCC2)c1`, the solubility (kinetic) was found to be 10.9 µg/mL (≈ 24 µM). The molecule `CC(O)CNCCCOc1cccc(C(F)(F)F)c1.O=C(O)C(=O)O` (stereo not drawn) came in with a solubility (kinetic) of 51.7 µg/mL. Against the preceding molecule, the solubility kinetic is about 4.7-fold higher. In the case of `Cc1ccc(C(=O)CCC(=O)NCc2ccc(Cl)cc2)cc1` it was 9.7 µg/mL (≈ 30.7 µM); in that of `NS(=O)(=O)c1ccc(CCN2C(=O)CCC2=O)cc1`, greater than 42.3 µg/mL. Molecule `Cc1oc(C(C)(C)C)cc1C(=O)NCc1ccc2c(c1)OCO2` yielded a kinetic solubility of less than 0.7 µg/mL.

The molecule `O=C(CNC(=O)c1ccc(Cl)cc1)Nc1ccccc1C(F)(F)F` returned a solubility (kinetic) of 3.4 µg/mL (≈ 9.53 µM). In the case of `CC1CN(S(=O)(=O)c2ccc(C(=O)NC3CCCCC3)cc2)CC(C)O1` (stereo not drawn) it was 45.8 µg/mL (≈ 120 µM); in that of `CC(C)c1nc2sc3c(=S)nc[nH]c3c2c2c1CCC2`, 4.5 µg/mL (≈ 14.9 µM). The value for `Cc1nc2ccccc2n1C(C)c1ccccc1` (stereo not drawn) was greater than 35.4 µg/mL. The value for `CNC(=O)c1cc2c(s1)-c1ccccc1CC2` was 5.2 µg/mL (≈ 21.4 µM); that for `COc1ccc(N=C2NC(=O)/C(=C\c3ccco3)S2)cc1` was 2.6 µg/mL (≈ 8.66 µM). Take `Cc1cccc(OCC(=O)NC2CCCC2)c1`: the solubility (kinetic) came out at 31.5 µg/mL (≈ 135 µM). In the case of `COC(=O)c1ccc(N2C(=O)C3CC(C)=C(C)CC3C2=O)cc1` (stereo not drawn) it was 18.3 µg/mL (≈ 58.4 µM); in that of `NS(=O)(=O)c1cccc(NC(=O)CN2CCN(S(=O)(=O)c3ccc4c(c3)OCCO4)CC2)c1`, greater than 74.5 µg/mL; in that of `COc1ccccc1OCc1csc(N)n1`, greater than 35.4 µg/mL. `COCCCn1c(=O)c2ccccc2n(CC(=O)NC2CCCC2)c1=O` yielded a kinetic solubility greater than 53.9 µg/mL. The value for `COc1ccccc1C(=O)Nc1cccc(C(=O)c2ccccc2)c1` was 3.5 µg/mL (≈ 10.6 µM); that for `Br.COc1ccc(C2=CSC3=NCCN23)cc1Br` was 54.4 µg/mL.

`COc1ccc(CN(C)C(=O)CCl)cc1` showed a kinetic solubility greater than 34.2 µg/mL. For `CCCN1C2CCCC1CC(NC(=S)Nc1cccc(C)c1)C2` (stereo not drawn), the kinetic solubility was greater than 49.7 µg/mL. The value for `COc1ccc(C(=O)NC(=S)N2CCOCC2)cc1[N+](=O)[O-]` was greater than 48.8 µg/mL; that for `Cc1oc2c(CN3CCCC(C)C3)c(O)ccc2c(=O)c1-c1ccccc1` (stereo not drawn) was greater than 54.5 µg/mL. In the case of `CC1(C)C=C2C(=NN(c3ccccc3)C(N)=C2C#N)CO1` it was greater than 42 µg/mL.

For `Cc1cn(C2CC(OC(=O)C(C)C)C(CO)O2)c(=O)[nH]c1=O` (stereo not drawn), the kinetic solubility was greater than 46.8 µg/mL.

`COc1ccccc1CNC(=O)c1nccnc1CO` yielded a solubility (kinetic) greater than 41 µg/mL.

In turn, `O=[N+]([O-])c1ccc(Nc2ccccc2)c2nonc12` yielded a kinetic solubility greater than 38.4 µg/mL. The molecule `Cn1cccc1C(=O)OCC(=O)NCCc1ccccc1` displayed a solubility (kinetic) greater than 42.9 µg/mL.

In the case of `O=[N+]([O-])c1ccc(OCc2cnc(Cl)s2)c([N+](=O)[O-])c1`, the solubility (kinetic) was determined as 4.7 µg/mL (≈ 14.9 µM). In the case of `O=S(=O)(NC1CCSc2ccccc21)c1ccccc1` (stereo not drawn) it was 15.6 µg/mL (≈ 51.1 µM); in that of `N#CC1=C(N)Oc2c(c(=O)sc3ccccc23)C1c1ccncc1` (stereo not drawn), 3.6 µg/mL (≈ 10.8 µM). The value for `CCCCNC(=O)Nc1nc2ccc(CC)cc2s1` was 0.7 µg/mL (≈ 2.52 µM); that for `CC(C)Cn1cc(Cl)c(=O)n(CC(C)C)c1=O` was greater than 38.8 µg/mL. The value for `CCCc1cc(C(=O)Nc2cc(C)ccc2O)no1` was 1.2 µg/mL (≈ 4.61 µM); that for `Cc1cc(=O)c(C(=O)O)nn1-c1ccccc1C(F)(F)F` was greater than 44.7 µg/mL.

As for `CCOc1ccccc1NC(=O)CCCNC(=O)c1ccc(Cl)cc1`, the solubility (kinetic) was determined as 50.4 µg/mL (≈ 140 µM). The value for `Cc1ccc(C2N3CCCN23)cc1` (stereo not drawn) was greater than 26.1 µg/mL; that for `Cc1cc(C(=O)NCc2ccc3c(c2)OCO3)c(C)o1` was greater than 41 µg/mL; that for `CC(=O)N(CCN(C)C)c1nc2cc3c(cc2s1)OCCO3.Cl` was 47.6 µg/mL.

Molecule `COc1ccccc1-c1cc(C(=O)N2CCOCC2)no1` registered a solubility (kinetic) greater than 43.2 µg/mL. In the case of `COC(=O)c1sccc1NC(=O)CSc1ccccc1N` it was 20.8 µg/mL (≈ 64.5 µM); in that of `Cc1cccc(NC(=O)c2ccco2)c1C`, 31.8 µg/mL (≈ 148 µM).
